Reference: ChEMBL document CHEMBL3352071, “Benzimidazoles: novel mycobacterial gyrase inhibitors from scaffold morphing” (ACS Med Chem Lett, 2014)
Values after ≈ are worked out from the molar mass of the structure shown.

Tests used:
[1] = tested on: Mycobacterium tuberculosis; test: Antimicrobial activity against Mycobacterium tuberculosis H37Rv ATCC 27294; type: functional
[2] = Inhibition of Mycobacterium tuberculosis H37Rv DNA gyrase A2B2 holoenzyme supercoiling activity using relaxed pBR322 substrate incubated for 90 mins by ethidium bromide staining based gel electrophoresis method
[3] = molecular target: Voltage-gated inwardly rectifying potassium channel KCNH2 (Homo sapiens, UniProt Q12809)
Chain of Voltage-gated inwardly rectifying potassium channel KCNH2 (Q12809 whole entry): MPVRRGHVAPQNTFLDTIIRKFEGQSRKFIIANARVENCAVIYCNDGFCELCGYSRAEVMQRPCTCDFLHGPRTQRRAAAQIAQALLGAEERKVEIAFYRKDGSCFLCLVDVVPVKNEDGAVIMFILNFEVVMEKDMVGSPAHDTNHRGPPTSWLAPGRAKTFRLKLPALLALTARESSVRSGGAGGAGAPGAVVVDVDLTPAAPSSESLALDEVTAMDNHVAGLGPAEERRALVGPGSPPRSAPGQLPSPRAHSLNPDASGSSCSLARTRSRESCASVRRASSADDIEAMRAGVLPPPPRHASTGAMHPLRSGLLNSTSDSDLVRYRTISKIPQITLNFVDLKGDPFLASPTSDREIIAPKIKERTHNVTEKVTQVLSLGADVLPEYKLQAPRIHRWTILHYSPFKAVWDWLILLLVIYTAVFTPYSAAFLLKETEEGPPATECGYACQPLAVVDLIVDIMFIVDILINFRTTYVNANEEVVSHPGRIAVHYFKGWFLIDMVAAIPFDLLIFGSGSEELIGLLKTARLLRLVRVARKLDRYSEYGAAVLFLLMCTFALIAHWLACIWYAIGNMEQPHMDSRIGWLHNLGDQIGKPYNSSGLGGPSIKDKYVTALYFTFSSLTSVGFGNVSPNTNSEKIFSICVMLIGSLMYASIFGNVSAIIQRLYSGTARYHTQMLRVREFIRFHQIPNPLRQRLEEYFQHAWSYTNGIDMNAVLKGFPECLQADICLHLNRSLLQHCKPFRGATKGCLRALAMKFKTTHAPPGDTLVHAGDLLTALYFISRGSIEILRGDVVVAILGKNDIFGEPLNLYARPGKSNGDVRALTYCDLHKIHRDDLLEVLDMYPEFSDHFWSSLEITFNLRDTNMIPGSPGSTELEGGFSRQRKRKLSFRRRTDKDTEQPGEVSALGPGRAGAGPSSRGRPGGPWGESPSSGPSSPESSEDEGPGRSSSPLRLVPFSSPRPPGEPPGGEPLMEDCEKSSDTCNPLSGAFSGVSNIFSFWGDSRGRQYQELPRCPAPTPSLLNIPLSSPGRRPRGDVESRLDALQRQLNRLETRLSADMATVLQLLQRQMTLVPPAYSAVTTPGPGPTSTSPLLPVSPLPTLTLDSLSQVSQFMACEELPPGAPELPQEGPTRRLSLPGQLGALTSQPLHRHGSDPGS
Description: Inhibition of human ERG by electrophysiology assay

[4] = Octanol-water partition coefficient, logD of the compound at pH 7.4 by shake-flask method; type: physicochemical
THP-1 = test: Cytotoxicity against human THP1 cells; type: cell-based
DNA gyrase subunit B = DNA gyrase subunit B (Mycobacterium smegmatis, UniProt P0C559); test: Inhibition of Mycobacterium smegmatis GyrB ATPase activity; set-up: species or system Mycolicibacterium smegmatis
Chain of DNA gyrase subunit B (P0C559 whole entry): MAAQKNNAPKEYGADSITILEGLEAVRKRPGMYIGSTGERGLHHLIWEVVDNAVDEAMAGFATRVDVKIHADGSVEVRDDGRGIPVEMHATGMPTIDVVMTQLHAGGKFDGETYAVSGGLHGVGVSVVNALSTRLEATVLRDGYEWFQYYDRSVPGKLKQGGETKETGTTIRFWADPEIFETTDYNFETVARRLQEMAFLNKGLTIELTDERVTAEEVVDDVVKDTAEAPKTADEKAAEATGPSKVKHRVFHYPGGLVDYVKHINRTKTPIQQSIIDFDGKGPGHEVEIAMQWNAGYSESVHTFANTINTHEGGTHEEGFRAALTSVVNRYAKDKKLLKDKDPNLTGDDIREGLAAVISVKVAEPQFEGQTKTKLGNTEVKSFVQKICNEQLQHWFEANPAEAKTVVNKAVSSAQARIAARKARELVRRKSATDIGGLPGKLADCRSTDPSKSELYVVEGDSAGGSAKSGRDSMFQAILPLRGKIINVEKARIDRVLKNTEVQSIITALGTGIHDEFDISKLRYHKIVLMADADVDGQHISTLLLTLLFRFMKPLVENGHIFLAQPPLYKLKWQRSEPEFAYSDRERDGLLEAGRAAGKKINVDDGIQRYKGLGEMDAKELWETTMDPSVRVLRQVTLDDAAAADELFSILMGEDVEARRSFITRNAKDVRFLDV

Cytochrome P450 2C9 = Cytochrome P450 2C9 (Homo sapiens, UniProt P11712); test: Inhibition of CYP2C9 (unknown origin); type: ADME
Chain of Cytochrome P450 2C9 (P11712 whole entry): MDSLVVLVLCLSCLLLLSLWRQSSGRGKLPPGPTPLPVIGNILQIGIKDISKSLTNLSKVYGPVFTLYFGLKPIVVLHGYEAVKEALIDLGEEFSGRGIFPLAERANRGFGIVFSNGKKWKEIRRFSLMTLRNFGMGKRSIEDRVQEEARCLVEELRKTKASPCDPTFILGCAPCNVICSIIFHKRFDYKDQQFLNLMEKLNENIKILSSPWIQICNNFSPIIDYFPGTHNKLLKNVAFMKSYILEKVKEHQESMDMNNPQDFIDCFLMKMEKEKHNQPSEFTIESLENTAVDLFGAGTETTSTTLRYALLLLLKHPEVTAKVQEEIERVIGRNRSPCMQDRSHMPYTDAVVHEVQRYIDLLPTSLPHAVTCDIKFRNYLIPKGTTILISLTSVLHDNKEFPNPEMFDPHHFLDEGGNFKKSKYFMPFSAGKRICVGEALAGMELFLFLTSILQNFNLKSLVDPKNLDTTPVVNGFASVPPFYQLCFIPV

[5] = Elimination half life in Wistar rat at 1 mg/kg, iv; type: ADME, organism-based; set-up: dose 1 mg/kg, route intravenous; conditions: in vivo, read-out: beta t1/2 (converted)
[6] = Solubility of the compound; type: physicochemical
[7] = Clearance in Wistar rat at 1 mg/kg, iv; type: ADME, organism-based; set-up: dose 1 mg/kg, route intravenous; conditions: in vivo
[8] = AUC (0 to infinity) in Wistar rat at 10 mg/kg, po; type: ADME, organism-based; set-up: time infinity, dose 10 mg/kg, route oral; conditions: plasma
Cytochrome P450 3A4 = Cytochrome P450 3A4 (Homo sapiens, UniProt P08684); test: Inhibition of CYP3A4 (unknown origin); type: ADME
Chain of Cytochrome P450 3A4 (P08684 whole entry): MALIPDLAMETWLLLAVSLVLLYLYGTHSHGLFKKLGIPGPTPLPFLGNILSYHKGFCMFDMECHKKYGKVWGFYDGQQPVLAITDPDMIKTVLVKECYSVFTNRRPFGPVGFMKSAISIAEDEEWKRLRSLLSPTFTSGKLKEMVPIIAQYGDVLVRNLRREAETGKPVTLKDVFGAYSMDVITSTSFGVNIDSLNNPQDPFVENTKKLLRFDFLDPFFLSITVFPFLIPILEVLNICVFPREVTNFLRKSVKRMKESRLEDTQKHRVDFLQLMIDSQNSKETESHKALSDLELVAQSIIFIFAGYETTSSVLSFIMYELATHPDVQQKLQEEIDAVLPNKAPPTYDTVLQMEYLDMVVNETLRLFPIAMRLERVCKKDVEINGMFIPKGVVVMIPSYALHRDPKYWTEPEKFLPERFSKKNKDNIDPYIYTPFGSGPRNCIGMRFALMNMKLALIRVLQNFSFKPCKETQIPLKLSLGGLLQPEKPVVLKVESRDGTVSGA

Cytochrome P450 1A2 = molecular target: T1, Cytochrome P450 1A2 (Homo sapiens, UniProt P05177); test: Inhibition of CYP1A2 (unknown origin); type: ADME
T1 sequence (P05177 whole entry): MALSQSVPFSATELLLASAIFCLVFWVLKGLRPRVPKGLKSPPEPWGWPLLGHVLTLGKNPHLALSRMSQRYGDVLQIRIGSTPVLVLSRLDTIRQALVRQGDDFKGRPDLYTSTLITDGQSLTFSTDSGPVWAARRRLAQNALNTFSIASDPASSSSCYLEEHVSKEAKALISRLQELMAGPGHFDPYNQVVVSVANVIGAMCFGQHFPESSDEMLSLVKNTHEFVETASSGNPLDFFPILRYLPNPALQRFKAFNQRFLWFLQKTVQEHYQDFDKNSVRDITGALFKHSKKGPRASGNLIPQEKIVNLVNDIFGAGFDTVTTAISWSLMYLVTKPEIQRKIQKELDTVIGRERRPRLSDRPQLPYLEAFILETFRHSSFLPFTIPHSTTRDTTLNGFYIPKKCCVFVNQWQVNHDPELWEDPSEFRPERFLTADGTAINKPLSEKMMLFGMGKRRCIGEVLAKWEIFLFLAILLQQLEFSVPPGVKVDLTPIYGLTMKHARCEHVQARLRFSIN

[9] = AUC (0 to infinity) in Wistar rat at 1 mg/kg, iv; type: ADME, organism-based; set-up: time infinity, dose 1 mg/kg, route intravenous; conditions: plasma
[10] = Permeability from apical to basolateral side in human Caco2 cells; type: ADME, cell-based; conditions: Caco-2, read-out: permeability
[11] = Volume of distribution at steady state in Wistar rat at 1 mg/kg, iv; type: ADME, organism-based; set-up: dose 1 mg/kg, route intravenous; conditions: in vivo, read-out: Vdss
[12] = Permeability from basolateral to apical side in human Caco2 cells; type: ADME, cell-based; conditions: Caco-2, read-out: permeability
Cytochrome P450 2C19 = Cytochrome P450 2C19 (Homo sapiens, UniProt P33261); test: Inhibition of CYP2C19 (unknown origin); type: ADME
Chain of Cytochrome P450 2C19 (P33261 whole entry): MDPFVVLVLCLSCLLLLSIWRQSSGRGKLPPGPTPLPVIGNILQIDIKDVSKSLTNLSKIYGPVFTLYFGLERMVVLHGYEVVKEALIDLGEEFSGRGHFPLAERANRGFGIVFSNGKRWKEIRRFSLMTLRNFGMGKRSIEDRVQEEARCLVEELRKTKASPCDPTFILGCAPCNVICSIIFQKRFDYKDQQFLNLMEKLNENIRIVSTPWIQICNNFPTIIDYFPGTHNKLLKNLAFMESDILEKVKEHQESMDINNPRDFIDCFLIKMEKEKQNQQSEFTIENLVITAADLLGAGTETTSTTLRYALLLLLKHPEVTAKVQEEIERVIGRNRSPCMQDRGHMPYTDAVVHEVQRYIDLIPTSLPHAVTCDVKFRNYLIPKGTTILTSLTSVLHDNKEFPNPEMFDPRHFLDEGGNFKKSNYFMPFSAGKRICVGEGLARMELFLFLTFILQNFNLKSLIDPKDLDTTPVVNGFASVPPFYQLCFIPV

[13] = Oral bioavailability in Wistar rat at 10 mg/kg; type: ADME, organism-based; conditions: in vivo
Cytochrome P450 2D6 = Cytochrome P450 2D6 (Homo sapiens, UniProt P10635); test: Inhibition of CYP2D6 (unknown origin); type: ADME
Chain of Cytochrome P450 2D6 (P10635 whole entry): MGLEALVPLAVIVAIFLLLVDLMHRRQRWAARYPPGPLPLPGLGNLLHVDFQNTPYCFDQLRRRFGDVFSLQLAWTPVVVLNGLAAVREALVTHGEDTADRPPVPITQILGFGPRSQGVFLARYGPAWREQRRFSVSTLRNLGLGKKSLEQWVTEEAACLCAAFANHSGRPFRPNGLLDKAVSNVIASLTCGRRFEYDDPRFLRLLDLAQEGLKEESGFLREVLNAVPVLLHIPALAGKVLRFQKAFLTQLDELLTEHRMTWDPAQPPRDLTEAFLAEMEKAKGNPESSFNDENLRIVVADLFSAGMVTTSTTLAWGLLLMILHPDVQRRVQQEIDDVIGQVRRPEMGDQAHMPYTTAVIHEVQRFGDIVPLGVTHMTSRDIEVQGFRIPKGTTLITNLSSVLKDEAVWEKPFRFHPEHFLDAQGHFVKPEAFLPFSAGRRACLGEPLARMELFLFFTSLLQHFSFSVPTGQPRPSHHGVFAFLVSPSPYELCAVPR

N#Cc1ccc2ccc(=O)n(CCN3CCC(NCc4ccc5c(n4)NC(=O)CO5)CC3)c2c1
MIC [1]: 0.19 µM (≈ 0.0871 µg/mL)
IC50 [2]: 0.11 µM

COc1cnc2ccc(=O)n(CCN3CCC(C4C(=O)Nc5ccc(Cl)cc54)CC3)c2c1 (stereo not drawn)
MIC [1]: 100 µM (≈ 45.3 µg/mL)
IC50 [3]: 4.8 µM
logD [4]: 2.8
IC50 (THP-1): > 50 µM
IC50 [2]: > 50 µM
IC50 (DNA gyrase subunit B): > 100 µM

COc1cnc2ccc(=O)n(CCN3CCC(c4nc5cc(C(F)(F)F)ccc5[nH]4)CC3)c2c1
MIC [1]: 0.19 µM (≈ 0.0896 µg/mL)
logD [4]: 4
IC50 (THP-1): > 50 µM
IC50 (DNA gyrase subunit B): > 100 µM

COc1cnc2ccc(=O)n(CCN3CCN(c4nc5cc(C(F)(F)F)ccc5[nH]4)CC3)c2c1
MIC [1]: 3.13 µM (≈ 1.48 µg/mL)
IC50 [3]: 10 µM
logD [4]: 2.8

COc1cnc2ccc(=O)n(CCN3CCN(c4nc5ccccc5[nH]4)CC3)c2c1
MIC [1]: 100 µM (≈ 40.4 µg/mL)
IC50 [3]: 7 µM
logD [4]: 2.4

O=c1ccc2ncc(F)cc2n1CCN1CCN(c2nc3cc(C(F)(F)F)ccc3[nH]2)CC1
MIC [1]: 15 µM (≈ 6.91 µg/mL)
logD [4]: 3.7

O=c1ccc2ncc(F)cc2n1CCN1CCC(c2nc3cc(C(F)(F)F)ccc3[nH]2)CC1
MIC [1]: 0.78 µM (≈ 0.358 µg/mL)

N#Cc1ccc2[nH]c(C3CCN(CCn4c(=O)ccc5ncc(F)cc54)CC3)nc2c1
MIC [1]: 50 µM (≈ 20.8 µg/mL)

COc1cnc2ccc(=O)n(CCN3CCC(c4nc5cc(Cl)ccc5[nH]4)CC3)c2c1
MIC [1]: 0.25 µM (≈ 0.109 µg/mL)
logD [4]: 3.6

COc1cnc2ccc(=O)n(CCN3CCC(c4nc5cc(C#N)ccc5[nH]4)CC3)c2c1
MIC [1]: 3.15 µM (≈ 1.35 µg/mL)
logD [4]: 2.4

COc1cnc2ccc(=O)n(CCN3CCC(c4nc5cc(Cl)c(F)cc5[nH]4)CC3)c2c1
MIC [1]: 0.06 µM (≈ 0.0274 µg/mL)
logD [4]: 4
IC50 [2]: 2 µM

COc1cnc2ccc(=O)n(CCN3CCC(c4nc5cc(Cl)c(C)cc5[nH]4)CC3)c2c1
MIC [1]: 0.13 µM (≈ 0.0588 µg/mL)
logD [4]: 3.8

Cc1cc2[nH]c(C3CCN(CCn4c(=O)ccc5ncc(F)cc54)CC3)nc2cc1Cl
MIC [1]: 1.56 µM (≈ 0.686 µg/mL)
IC50 [3]: 1.2 µM
logD [4]: 3.7

COc1ccc2ncc(=O)n(CCN3CCC(c4nc5cc(Cl)c(C)cc5[nH]4)CC3)c2c1
MIC [1]: 0.13 µM (≈ 0.0588 µg/mL)

COc1cnc2ncc(=O)n(CCN3CCC(c4nc5cc(Cl)c(C)cc5[nH]4)CC3)c2c1
MIC [1]: 0.39 µM (≈ 0.177 µg/mL)
IC50 [3]: 10 µM
logD [4]: 3.5

Cc1cc2[nH]c(C3CCN(CCn4c(=O)ccc5ncc(F)cc54)CC3)nc2cc1C#N
MIC [1]: 3.15 µM (≈ 1.36 µg/mL)

COc1cnc2ccc(=O)n(CCN3CCC(c4nc5cc(C#N)c(C)cc5[nH]4)CC3)c2c1
IC50 (Cytochrome P450 2C9): > 30 µM
MIC [1]: 0.19 µM (≈ 0.0841 µg/mL)
half-life [5]: 36 min
solubility [6]: 2.1 µM (≈ 0.929 µg/mL)
clearance [7]: 35.5 mL/min/kg
AUC(0-inf) [8]: 20 ng·h/mL
IC50 (Cytochrome P450 3A4): 9.4 µM
IC50 (Cytochrome P450 1A2): > 30 µM
AUC(0-inf) [9]: 470 ng·h/mL
logD [4]: 2.8
Papp A→B [10]: 0.4 ×10⁻⁶ cm/s
IC50 [2]: 4.3 µM
Vd [11]: 1.01 L/kg
Papp B→A [12]: 28.1 ×10⁻⁶ cm/s
IC50 (Cytochrome P450 2C19): > 30 µM
bioavailability [13]: 1.1%
IC50 (Cytochrome P450 2D6): 28 µM

COc1cnc2ccc(=O)n(CCN3CCN(c4nc5cc(C#N)c(C)cc5[nH]4)CC3)c2c1
IC50 (Cytochrome P450 2C9): > 30 µM
MIC [1]: 0.78 µM (≈ 0.346 µg/mL)
half-life [5]: 48 min
solubility [6]: 3 µM (≈ 1.33 µg/mL)
clearance [7]: 32.2 mL/min/kg
AUC(0-inf) [8]: 160 ng·h/mL
IC50 (Cytochrome P450 3A4): 20 µM
IC50 (Cytochrome P450 1A2): > 30 µM
AUC(0-inf) [9]: 520 ng·h/mL
IC50 [3]: > 33 µM
logD [4]: 3.2
Papp A→B [10]: 1.5 ×10⁻⁶ cm/s
Vd [11]: 1.54 L/kg
Papp B→A [12]: 24.1 ×10⁻⁶ cm/s
IC50 (Cytochrome P450 2C19): > 30 µM
bioavailability [13]: 3.3%
IC50 (Cytochrome P450 2D6): 20 µM

N#Cc1ccc2[nH]c(C3CCN(CCn4c(=O)ccc5ncc(Oc6cccnc6)cc54)CC3)nc2c1
MIC [1]: 3.13 µM (≈ 1.54 µg/mL)
logD [4]: 2.9

N#Cc1ccc2[nH]c(C3CCN(CCn4c(=O)ccc5ncc(Oc6ccc(S(N)(=O)=O)cc6)cc54)CC3)nc2c1
MIC [1]: 0.78 µM (≈ 0.444 µg/mL)
IC50 [3]: > 33 µM
logD [4]: 2.2

NS(=O)(=O)c1ccc(Oc2cnc3ccc(=O)n(CCN4CCC(c5nc6cc(C(F)(F)F)ccc6[nH]5)CC4)c3c2)cc1
MIC [1]: 0.19 µM (≈ 0.116 µg/mL)
IC50 [3]: > 33 µM
logD [4]: 2.4
IC50 [2]: 1.9 µM

COc1cnc2ccc(=O)n(CCN3CCC(c4c[nH]c5ccc(C#N)cc45)CC3)c2c1
MIC [1]: 100 µM (≈ 42.8 µg/mL)
IC50 [3]: 2 µM
logD [4]: 3.3
IC50 (THP-1): > 50 µM
IC50 [2]: > 50 µM
IC50 (DNA gyrase subunit B): > 100 µM

COc1cnc2ccc(=O)n(CCN3CCC(c4c[nH]c5cc(C(F)(F)F)ccc45)CC3)c2c1
MIC [1]: 50 µM (≈ 23.5 µg/mL)
logD [4]: 4
IC50 (THP-1): > 50 µM
IC50 [2]: > 50 µM
IC50 (DNA gyrase subunit B): > 100 µM

O=c1ccc2ncc(F)cc2n1CCN1CCC(NCc2ccc(C(F)(F)F)nc2)CC1
MIC [1]: 0.19 µM (≈ 0.0854 µg/mL)
IC50 [2]: 0.25 µM

O=C(O)c1cn(C2CC2)c2cc(N3CCNCC3)c(F)cc2c1=O [CIPROFLOXACIN]
MIC [1]: 0.5 µM (≈ 0.166 µg/mL)

NNC(=O)c1ccncc1 [ISONIAZID]
MIC [1]: 0.06 µM (≈ 0.00823 µg/mL)

COc1c(N2C[C@@H]3CCCN[C@@H]3C2)c(F)cc2c(=O)c(C(=O)O)cn(C3CC3)c12 [MOXIFLOXACIN]
MIC [1]: 0.13 µM (≈ 0.0522 µg/mL)
